Laboratory results taken from the supplement of paper PMC10307832.

Legend:
Assay in all cases: relative viability (nuclei count vs DMSO), 5 days (fraction); higher = more cells survive
GSK126 + Foretinib = compound: CC[C@H](C)N1C=C(C2=C(C=C(C=C21)C3=CN=C(C=C3)N4CCNCC4)C(=O)NCC5=C(C=C(NC5=O)C)C)C [GSK126] + COc1cc2c(Oc3ccc(NC(=O)C4(C(=O)Nc5ccc(F)cc5)CC4)cc3F)ccnc2cc1OCCCN1CCOCC1 [Foretinib] (partner 0.25 µM)
In short: (§1)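 Lung cancer cell lines were pin-tool dosed in 1536-well plates on the day after seeding, with either a lone drug or a fixed anchor-drug dose plus five library-drug doses (not always all listed) in √10 steps. Nuclei were counted on 4× images after 5 days. Relative viability is the ratio of treated-well to vehicle-well nuclei counts, with each value a median of duplicate plates.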

Carboplatin + Foretinib = compound: C1CC(C1)(C(=O)O)C(=O)O.[NH2-].[NH2-].[Pt+2] [Carboplatin] + COc1cc2c(Oc3ccc(NC(=O)C4(C(=O)Nc5ccc(F)cc5)CC4)cc3F)ccnc2cc1OCCCN1CCOCC1 [Foretinib] (partner 0.25 µM)
In short: as §1

GSK126 + Luminespib = compound: CC[C@H](C)N1C=C(C2=C(C=C(C=C21)C3=CN=C(C=C3)N4CCNCC4)C(=O)NCC5=C(C=C(NC5=O)C)C)C [GSK126] + CCNC(=O)c1noc(-c2cc(C(C)C)c(O)cc2O)c1-c1ccc(CN2CCOCC2)cc1 [Luminespib] (partner 0.01 µM)
In short: as §1

MLN4924 + AZD7762 = compound: NS(=O)(=O)OC[C@@H]1C[C@@H](n2ccc3c(N[C@H]4CCc5ccccc54)ncnc32)C[C@@H]1O [MLN4924] + NC(=O)Nc1cc(-c2cccc(F)c2)sc1C(=O)N[C@H]1CCCNC1 [AZD7762] (partner 0.2 µM)
In short: as §1

Cell Line | relative viability (GSK126 + Foretinib; first compound 0.08 µM) | relative viability (GSK126 + Foretinib; first compound 0.253 µM) | relative viability (GSK126 + Foretinib; first compound 0.8 µM) | relative viability (GSK126 + Foretinib; first compound 2.53 µM) | relative viability (GSK126 + Foretinib; first compound 8 µM) | relative viability (Carboplatin + Foretinib; first compound 0.08 µM) | relative viability (Carboplatin + Foretinib; first compound 0.253 µM) | relative viability (Carboplatin + Foretinib; first compound 0.8 µM) | relative viability (Carboplatin + Foretinib; first compound 2.53 µM) | relative viability (Carboplatin + Foretinib; first compound 8 µM) | relative viability (GSK126 + Luminespib; first compound 0.08 µM) | relative viability (GSK126 + Luminespib; first compound 0.253 µM) | relative viability (GSK126 + Luminespib; first compound 0.8 µM) | relative viability (GSK126 + Luminespib; first compound 2.53 µM) | relative viability (GSK126 + Luminespib; first compound 8 µM) | relative viability (MLN4924 + AZD7762; first compound 0.04 µM) | relative viability (MLN4924 + AZD7762; first compound 0.1265 µM) | relative viability (MLN4924 + AZD7762; first compound 0.4 µM) | relative viability (MLN4924 + AZD7762; first compound 1.265 µM) | relative viability (MLN4924 + AZD7762; first compound 4 µM)
LK-2 | 1.44 | 1.33 | 1.28 | 1.15 | 1.19 | 1.46 | 1.24 | 1.17 | 1.01 | 1.26 | 0.217 | 0.171 | 0.171 | 0.204 | 0.188 | 0.329 | 0.307 | 0.309 | 0.124 | 0.155
NCI-H1651 | 0.736 | 0.848 | 0.868 | 0.702 | 0.977 | 0.791 | 0.827 | 0.822 | 0.795 | 0.413 | 0.966 | 0.948 | 0.766 | 0.732 | 0.817 | 0.495 | 0.53 | 0.47 | 0.436 | 0.158
LC-2-ad | 1.08 | 0.971 | 0.915 | 0.995 | 1.07 | 1.03 | 1.04 | 0.994 | 0.874 | 0.679 | 1 | 1.19 | 0.948 | 1.04 | 1.01 | 0.376 | 0.9 | 0.837 | 0.376 | 0.236
NCI-H1734 | 0.931 | 0.868 | 0.771 | 0.817 | 0.904 | 0.777 | 0.877 | 0.827 | 0.954 | 0.812 | 0.179 | 0.231 | 0.117 | 0.176 | 0.213 | 0.863 | 0.641 | 0.204 | 0.104 | 0.111
